Laboratory results taken from article PMC7722660 (Neuropsychopharmacology Reports, 2020).
Where “and” joins values, the source holds several entries; their conditions need not be identical. Equal entries are not always repeated. Values belong to the compound of their own block, whether it stands above or below them.

How the values were obtained:
rats [1] = details: cited from earlier work
[2] = system: 55 molecular targets, including neurotransmitter receptors, ion channels, and transporters; assay: Cerep ExpresSProfile off-target panel; type: binding; details: 10 μmol/L
[3] = Brain penetration: plasma and brain concentrations in rats; details: rat, in vivo, po
[4] = Pharmacokinetic study in rats; type: in vivo; details: rat, plasma
[5] = Spontaneous locomotor activity in rats; type: in vivo, rat; details: up to 100 mg/kg, data not shown
rats [6] = assay: Rat EEG; type: in vivo; details: 100 mg/kg p.o., vs vehicle
OX2 receptor [7] = details: agonist ref 21; cited from earlier work
OX2 receptor [8] = details: cited from earlier work

Compound: Cc1cc(C)nc(N2CC3CN(C(=O)c4c(F)cccc4-n4nccn4)CC3C2)n1 (stereo not shown) [JNJ‐42847922]
effect on REM sleep (rats [1]; rats ref 19, 23): did not exert a significant effect
effect on NREM sleep time (rats [1]; rats, first 2 hours of sleep ref 19, 23): prolonged

inhibitory effects on 55 other molecular targets [2]: ≤ 50%
concentration at 30 min ([3]; 30 mg/kg): 110 ng/mL and 28 ng/g
concentration at 30 min ([3]; 100 mg/kg): 601 ng/mL and 198 ng/g
half-life ([4]; iv, 1 mg/kg): 22.2 min
Cmax ([4]; po, 30 mg/kg): 1180 ng/mL
Tmax ([4]; po, 30 mg/kg): 15 min
half-life ([4]; po, 30 mg/kg): 25.8 min
Compound: COc1c(C#N)ccnc1N1C2CCC1CN(C(=O)c1cccnc1-n1cccn1)C2 [SDM‐878, 2‐(3‐(2‐(1H‐pyrazol‐1‐yl)nicotinoyl)‐3,8‐diazabicyclo[3.2.1]octan‐8‐yl)‐3‐methoxyisonicotinonitrile]
effect on spontaneous locomotor activity [5]: did not affect
effect on duration of REM sleep (rats [6]): did not observe a significant effect
effect on duration of NREM sleep (rats [6]; P < .05): significantly increased
effect on time spent in wakefulness (rats [6]; P < .05): significantly decreased
effect on total sleep (rats [6]; P < .05): significantly increased

Compound: [Ala^11, D‐Leu^15]‐orexin‐B [ADL‐OXB]
selectivity for the OX2 receptor over the OX1 receptor (OX2 receptor [7]): 400 fold

Compound: orexin‐B
fold higher affinity for the OX2 receptor than for the OX1 receptor (OX2 receptor [8]): 10 fold
